Assay results reported in patent US8680058B2, “Selectively targeted antimicrobial peptides and the use thereof” (priority 2006, dated 2014).
No end group written: not given here.

Tested on: S. mutans JM11 within a multi-species biofilm
Test: Multi-species biofilm in saliva, luciferase readout of S. mutans JM11
Assay type: cell-based, Streptococcus mutans
Settings: 25 μM in saliva, 5 min exposure
Protocol: 1.6 Evaluation of antimicrobial activity against bacterial biofilm in saliva. For these experiments, we employed methods similar to those previously described (Bleher et al., 2003). A day prior to the assay, saliva was collected and pooled from 5 adult volunteers in the laboratory, diluted 1:4 in TH broth and centrifuged 2,000×g for 10 min. The supernatant was then filter sterilized (0.2 μm filter, Nunc) and stored at 4° C. A portion of pooled saliva was also diluted 1:2 in 1×PBS and processed as before. On the day of the assay, overnight cultures of JM11 and other oral streptococci were normalized to OD600 1.0 and ˜3×10^6 cfu/mL of each species was added to 10 mL of the TH-diluted saliva. […] At each time point, total biofilm growth was measured by reading absorbance at OD600, and the health of S. mutans within the population examined by relative luciferase expression (relative light unit, (RLU) production), as described previously (Merritt et al., 2005). […] RLU production was measured using a TD 20/20 luminometer (Turner Biosystems) and reported values were obtained from the average of 3 independent samples. […]
1.9 C16G2 can selectively eliminate S. mutans from a mixed species biofilm. […] The mixed-species biofilms were formed with saliva, and then peptides (25 μM) suspended in saliva were added for 5 min and removed, and the post-treatment growth of the biofilm was further monitored. […]

For “TFFRLFNRSFTQALGKGGGKNLRIIRKGIHIIKKY-NH2 [Peptide C16G2]”, the “S. mutans population within mixed-species biofilm (luciferase activity, RLU/OD600)” value was “dramatically reduce the S. mutans population” and the “duration of selective inhibition of S. mutans growth within multi-species biofilm” value was ≥ 2 h.
